The values below come from patent US12226409B2, “Treatment of hepatocellular carcinoma” (Eisai R&D Management Co., Ltd., priority 2017, dated 2025).

The target of the data set is CYP2C9 (Homo sapiens, UniProt P11712). As to the kind of experiment: In vitro CYP inhibition. The format is in vitro ADME.
Sequence of CYP2C9 (P11712 whole entry): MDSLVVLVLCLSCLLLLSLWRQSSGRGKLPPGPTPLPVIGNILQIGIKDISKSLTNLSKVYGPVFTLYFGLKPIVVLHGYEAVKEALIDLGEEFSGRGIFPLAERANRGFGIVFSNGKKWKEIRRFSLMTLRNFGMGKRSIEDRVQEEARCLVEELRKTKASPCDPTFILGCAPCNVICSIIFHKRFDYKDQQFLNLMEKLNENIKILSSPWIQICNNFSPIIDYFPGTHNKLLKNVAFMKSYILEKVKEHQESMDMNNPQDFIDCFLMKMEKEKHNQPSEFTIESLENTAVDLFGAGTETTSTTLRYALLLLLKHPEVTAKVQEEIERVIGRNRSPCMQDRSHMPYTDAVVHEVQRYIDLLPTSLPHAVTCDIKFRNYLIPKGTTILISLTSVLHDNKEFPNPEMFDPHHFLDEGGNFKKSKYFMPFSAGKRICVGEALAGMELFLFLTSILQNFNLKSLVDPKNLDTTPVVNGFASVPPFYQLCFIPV

For `COc1cc2nccc(Oc3ccc(NC(=O)NC4CC4)c(Cl)c3)c2cc1C(N)=O` [Lenvatinib, 4-(3-chloro-4(cyclopropylaminocarbonyl)aminophenoxy)-7-methoxy-6-quinolinecarboxamide], the “inhibition of CYP2C9” value is listed as “inhibits”.
